Reference: paper PMC11314561, “Design and Synthesis of Novel Aminoindazole-pyrrolo[2,3-b]pyridine Inhibitors of IKKα That Selectively Perturb Cellular Non-Canonical NF-κB Signalling” (Molecules, 2024)
pIC50: −log10 of the molar value.

Key:
MSK2(h) = MSK2(h) (Homo sapiens, UniProt O75676); assay: kinase panel; type: biochemical
Procedure, shortened: (§1)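 Values are percent inhibition from kinome-wide profiling of three series compounds across 231 kinases, with a structurally similar analogue tested on only 98 selected kinases.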

SRPK2(h) = SRPK2(h) (Homo sapiens, UniProt P78362); assay: kinase panel; type: biochemical
Procedure, shortened: as §1

[1] = test system: p100 phosphorylation (Ser866/870) in PC-3M cells; assay: LTα1β2-stimulated p100 phosphorylation, Western blotting; type: cell-based; settings: Homo sapiens, 1 h pre-treatment, LTα1β2 4 h
Method: U2OS cells were cultured in McCoy’s 5A Modified Medium, and PC-3M-Luc-C6 prostate cancer cells were cultured in Minimum Essential Medium (MEM), each containing 10% (v/v) Foetal Calf Serum (FCS), L-glutamine ([…]), and penicillin/streptomycin (250 units/mL; 100 μg/mL) and incubated in a humidified atmosphere at 37 °C with 5% (v/v) CO2. Cells were grown to near confluence and prior to experimentation rendered quiescent by serum deprivation for 24 h.
(§2) For examination of potential effects of compound on non-canonical NF-κB signalling, cells were exposed to vehicle (DMSO; 0.03–0.05% (v/v)) or increasing concentrations of compounds (0.01–30 µM) for 1 h prior to treatment with FCS (10% (v/v); for U2OS cells) or LTα1β2 (20 ng/mL; for PC-3M cells) for 4 h. The status of p-p100 (Ser 866/870) in whole-cell extracts prepared from 12-well plates was assessed by Western blotting, as described in McKenzie et al.. […] Thereafter, p52 and RelB status in crude nuclear extracts normalised for protein amounts were assessed by Western blotting.
Each figure/panel of Western blotting data represents one of at least three separate experiments. Western blots were scanned and imaged using Adobe Photoshop 5.0.2 software and polypeptide bands were semi-quantified by scanning densitometry using the Scion Image program. […]

[2] = test system: p52/RelB nuclear translocation in PC-3M cells; assay: LTα1β2-stimulated p52/RelB nuclear translocation, Western blotting of crude nuclear extracts; type: cell-based; settings: Homo sapiens, LTα1β2 4 h
Method: Associated with the IKKα-mediated activation of the non-canonical NF-κB pathway is the downstream liberation and the nuclear translocation of p52/RelB-containing NF-κB complexes. The extent of the nuclear translocation of these proteins was also assessed by Western blotting of crude nuclear extracts prepared from PC-3M cells. […] Related to the markers of TNFα-stimulated canonical NF-κB signalling, 6g [SU1349] had no impact on any of TNFα-stimulated IκBα degradation, phosphorylation of p65 (Ser536), or p105 (Ser932) phosphorylation in these cells (Figure 15C).
as §2
Each figure/panel of Western blotting data represents one of at least three separate experiments. […] Data were normalised to fold expression/inhibition relative to ‘agonist plus vehicle’ treatment and expressed as mean ± s.e.m. […]

Sequence of MSK2(h) (O75676 whole entry): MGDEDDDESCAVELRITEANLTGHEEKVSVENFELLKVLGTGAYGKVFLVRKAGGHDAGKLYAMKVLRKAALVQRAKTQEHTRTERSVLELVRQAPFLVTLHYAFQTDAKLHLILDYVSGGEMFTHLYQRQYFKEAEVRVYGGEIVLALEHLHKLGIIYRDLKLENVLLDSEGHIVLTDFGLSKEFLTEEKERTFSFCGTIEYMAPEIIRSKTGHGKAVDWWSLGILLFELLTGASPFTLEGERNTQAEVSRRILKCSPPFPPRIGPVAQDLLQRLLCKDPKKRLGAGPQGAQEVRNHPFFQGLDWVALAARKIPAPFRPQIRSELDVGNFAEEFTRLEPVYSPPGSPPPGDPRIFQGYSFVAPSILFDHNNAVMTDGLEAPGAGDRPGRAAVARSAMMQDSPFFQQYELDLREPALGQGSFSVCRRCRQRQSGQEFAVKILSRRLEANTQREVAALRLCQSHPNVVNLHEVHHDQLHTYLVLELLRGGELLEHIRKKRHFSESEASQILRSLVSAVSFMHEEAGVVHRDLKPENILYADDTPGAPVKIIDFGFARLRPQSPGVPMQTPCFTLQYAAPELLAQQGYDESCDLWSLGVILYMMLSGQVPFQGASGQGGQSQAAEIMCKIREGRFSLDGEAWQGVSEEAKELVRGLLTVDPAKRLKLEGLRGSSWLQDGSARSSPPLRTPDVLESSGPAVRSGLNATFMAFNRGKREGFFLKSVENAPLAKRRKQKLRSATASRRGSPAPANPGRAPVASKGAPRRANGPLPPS
Sequence of SRPK2(h) (P78362 whole entry): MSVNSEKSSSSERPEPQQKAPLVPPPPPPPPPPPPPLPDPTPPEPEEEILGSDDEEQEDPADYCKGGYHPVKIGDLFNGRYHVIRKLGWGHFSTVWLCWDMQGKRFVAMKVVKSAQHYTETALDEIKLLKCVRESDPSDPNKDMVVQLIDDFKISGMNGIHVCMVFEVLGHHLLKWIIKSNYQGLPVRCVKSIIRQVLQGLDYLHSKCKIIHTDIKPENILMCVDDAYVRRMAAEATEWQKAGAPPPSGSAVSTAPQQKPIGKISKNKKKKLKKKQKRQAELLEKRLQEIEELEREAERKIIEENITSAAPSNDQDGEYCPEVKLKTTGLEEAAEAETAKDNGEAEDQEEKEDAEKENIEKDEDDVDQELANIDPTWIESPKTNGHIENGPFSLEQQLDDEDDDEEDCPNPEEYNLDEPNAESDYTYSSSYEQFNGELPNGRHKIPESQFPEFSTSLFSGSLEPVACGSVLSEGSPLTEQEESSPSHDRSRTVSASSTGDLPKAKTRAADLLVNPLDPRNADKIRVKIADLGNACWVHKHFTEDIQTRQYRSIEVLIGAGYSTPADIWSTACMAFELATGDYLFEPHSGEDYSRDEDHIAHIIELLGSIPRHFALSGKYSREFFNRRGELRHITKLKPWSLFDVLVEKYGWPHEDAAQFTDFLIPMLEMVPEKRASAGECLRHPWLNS

| SMILES | inhibition at 1 µM (MSK2(h)) | inhibition at 1 µM (SRPK2(h)) | pIC50 [1] | pIC50 [2] |
| --- | --- | --- | --- | --- |
| Nc1n[nH]c2ccc(-c3ccnc4[nH]c(-c5ccccc5)cc34)cc12 [Compound 4] | 12% | -5% | – | – |
| Nc1n[nH]c2ccc(-c3ccnc4[nH]c(-c5cccc(OCc6ccccc6)c5)cc34)cc12 [Compound 5r [SU1261]] | -3% | -7% | 6.24 | – |
| Nc1n[nH]c2ccc(-c3ccnc4[nH]c(-c5ccnc(OCc6ccccc6)c5)cc34)cc12 [Compound 6g [SU1349]] | – | – | 6.70 | 6.82 |
